Values of other authors in patent US20090263514A1, “Cold and flu tonic” (priority 2008, published 2009).

Details: in humans

O=C(/C=C/C=C/c1ccc2c(c1)OCO2)N1CCCCC1 [piperine]
bioavailability of curcumin: enhance bioavailability of curcumin dramatically
